Entries after “also recorded” stand apart in the source; their conditions may differ.
Key:
Assay type in all cases: cell-based, Wistar rats
[1] = biological target: T1, receptor of the tyrosine kinase (RTK) family (Rattus norvegicus, UniProt P35739); test: FM endocytosis imaging (FEI) of NGF-induced endocytosis in DRG neuron; details: NGF 50 ng/ml
T1 construct: endogenous in cells; host or cells: freshly dissociated small DRG neurons of Wistar rats
From the text: (§1) Methods of the invention are based on FM endocytosis imaging (FEI). Confocal imaging can be used to measure the endocytosis induced by ligand-receptor binding (LRB). The principles of FM endocytosis imaging (FEI) method are: (i) an extracellular styryl FM dye (e.g., FM2-10) is taken up by the endocytic vesicles; and (ii) the FM molecule becomes 100 times brighter after uptake into vesicles. Thus, after proper stimulation, individual FM-loaded vesicles become visible images by standard confocal microscopy.
(§2) FIG. 2A illustrate a method of the invention. […] The ligand binds to the receptor and triggers receptor internalization (endocytosis). In the endocytosis process, the FM dye is internalized in endocytic vesicles. […]
(§3) The dye-containing vesicles in the cell may be imaged with a confocal fluorescence microscope, such as Zeiss LSM 510 (Germany). […]
(§4) The FM spots in each OS can be counted manually or automatically, e.g., with the aid of a software. […] Thus, the pixel sizes of the images may be properly adjusted so that FM spots corresponding to the vesicles are counted. One of ordinary skill in the art would appreciate that the images may be manipulated with techniques known in the art, e.g., smoothing, and the dynamic range (intensity range) may be adjusted so that majority (e.g., >90%) of the fluorescent spots are counted, with minimum interference from background noises. […]

DRG cells = test: Multi-well (2×2) FEI protocol; details: 3 minutes, FIG. 9C
Experimental: FIGS. 9A-9B illustrate a method of the invention that could be used for high throughput evaluation of LRB-induced endocytosis in a multi-well (here 2×2) format. The multi-well plate is the same as a standard cell culture plate, except that a 0.17 mm-thick glass cover-slip constitutes part of the bottom in each well. In this example, single DRG cells were plated on the cover-slips in the wells.
Well (1,1) is incubated with ES and FM, without any ligand. Well (1,2) is incubated with 80 mM KCl and FM. Well (2,1) is incubated with 0.1 mM ADP and FM. Well (2,2) is incubated with ADP, Suramin, and FM. The incubations are all performed for 3 minutes.
Each well was scanned in sequence to obtain the images shown in FIG. 9B, and the endocytic signal (FM spots/cell) were analyzed and presented in histograms (FIG. 9C). […] Within each column, the top image is a transmission microscopy image, showing the cells in the well. The cell bracketed by the square in each well is chosen for image analysis.
The selected cells are scanned for FM images of single OSs (middle image) as well as the global image (bottom image) in each cell (FIG. 9B).

P2Y = test: FM endocytosis imaging (FEI) of ADP-induced endocytosis in single DRG neuron
From the text: as §1
FIG. 2A illustrate a method of the invention. […] The ligand binds to the receptor and triggers receptor internalization (endocytosis). In the endocytosis process, the FM dye is internalized in endocytic vesicles. Subsequently, the excess FM-dye may be washed away, leaving behind cells loaded with dye filled vesicles that are observable due to the fluorescent dye. Using this procedure, single vesicles in a single cell can be visualized by FM imaging. Note that while this example uses an FM dye, other suitable dyes may also be used without departing from the scope of the invention. […] Therefore, some methods of the invention may not include the washing step.
When a confocal microscope is used, the images may be takes in different optical slices (OSs) based on different focal depth. […] The data can be observed as the distribution of FM spots (individual vesicles) in each OS or as a global view, which is a projection overlaying the FM images from different OSs. An advantage of viewing the individual OS is the ability to track the location of the endocytic vesicles within the cell. This would permit studies of vesicle trafficking inside the cells. The advantage of the global view is the total number of vesicles are observed and, therefore, it provides a maximum sensitivity for assay use. For example, the global view may be used to monitor LRB events as a function of time—e.g., in real-time monitoring. […]
as §3

DRG neuron = test: Time-resolved FEI recording (FIF recording)
From the text: Methods of the invention, as noted above, can provide images of endocytic vesicles with relative ease. Thus, these methods for detecting LRB-induced endocytosis can be used in real time to monitor the endocytosis processes. […] In real-time applications, the FEI methods described above may be modified as follows to provide better FIF results: (i) the spatial resolution can be reduced, i.e., OS thickness increased, to increase detection sensitivity; (ii) the confocal scan can be made at a fixed z-position (normally near the middle of the cell); and (iii) cell images can be obtained in the presence of extracellular FM dye (i.e., no need to wash away the dye outside the cells). Under these conditions, FIF recording can rapidly acquire many x-y images of the cell after ligand binding in order to monitor the LRB induced events in real time.
FIG. 7A illustrates a setup for performing a real-time recording of LRB-induced events. As illustrated, the cell is bathed in an ES solution containing a fluorescent dye (e.g., FM2-10), and the OS is selected to a thickness of about […] to have a better sensitivity. […] This is to provide background readings before the ligand is added. From image frame K+1 to image frame m (i.e., from tk+1 to tm), the cell is incubated with the ligand (ADP) in the ES solution. […]
The fluorescence intensity is proportional to the total number of endocytic vesicles. […]

DRG = test: Differential FEI labeling with FM2-10 and FM4-64 and KCl discharge; details: for numbers of endocytic vesicles induced by the two ligands: sequential ADP and 5-HT incubation with two FM dyes in the same cell, FIG. 8D
Experimental: This capability, for example, may be used to probe the vesicle sorting or trafficking inside the cells. It is known that GPCRs are active cargos for the internalized vesicles, and each different type of GPCR vesicles may have its own sorting pathway. To investigate different sorting paths of vesicles internalized under different conditions (time, ligand, etc.), vesicles can be labeled with FM dyes of different colors in the same cell.
As shown in the left panel, the cells in a dish is incubated with ADP and FM2-10 (green fluorophore). Then, the dye and ADP are washed away and a second incubation is performed with 5-HT and FM4-64 (red fluorophone). The cells are again washed and monitored with a confocal microscope, as illustrated in the right panel. Both FM2-10 and FM4-64 can be excited with a light at 488 nm. The emission of FM2-10 can be monitored at 530-600 nm, while the emission of FM4-64 can be monitored at >635 nm.
To test whether there is a common sorting pathways for the ADP-induced and 5-HT-induced endocytic vesicles, the cell was treated with 80 mM KCL for three minutes.

δ-opioid-DOR = biological target: T2, δ-opioid-DOR (Rattus norvegicus, UniProt P33533)
T2 construct: endogenous in cells; host or cells: freshly dissociated small DRG neurons of Wistar rats
T2 sequence (P33533 whole entry): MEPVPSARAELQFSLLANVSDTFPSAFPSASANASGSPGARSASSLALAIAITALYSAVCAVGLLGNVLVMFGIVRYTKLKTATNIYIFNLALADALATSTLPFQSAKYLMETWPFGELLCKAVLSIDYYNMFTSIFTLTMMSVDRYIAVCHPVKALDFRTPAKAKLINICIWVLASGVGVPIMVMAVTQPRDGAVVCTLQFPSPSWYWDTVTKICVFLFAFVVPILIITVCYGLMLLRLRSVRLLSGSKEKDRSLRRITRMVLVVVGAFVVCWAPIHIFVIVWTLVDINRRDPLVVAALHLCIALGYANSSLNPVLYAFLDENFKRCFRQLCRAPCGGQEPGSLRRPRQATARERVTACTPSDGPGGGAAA

5HT-R = test: FM endocytosis imaging (FEI) of 5-HT-induced endocytosis in DRG neuron
From the text: as §1, §2, §3, §4

T1 sequence (P35739 33-799): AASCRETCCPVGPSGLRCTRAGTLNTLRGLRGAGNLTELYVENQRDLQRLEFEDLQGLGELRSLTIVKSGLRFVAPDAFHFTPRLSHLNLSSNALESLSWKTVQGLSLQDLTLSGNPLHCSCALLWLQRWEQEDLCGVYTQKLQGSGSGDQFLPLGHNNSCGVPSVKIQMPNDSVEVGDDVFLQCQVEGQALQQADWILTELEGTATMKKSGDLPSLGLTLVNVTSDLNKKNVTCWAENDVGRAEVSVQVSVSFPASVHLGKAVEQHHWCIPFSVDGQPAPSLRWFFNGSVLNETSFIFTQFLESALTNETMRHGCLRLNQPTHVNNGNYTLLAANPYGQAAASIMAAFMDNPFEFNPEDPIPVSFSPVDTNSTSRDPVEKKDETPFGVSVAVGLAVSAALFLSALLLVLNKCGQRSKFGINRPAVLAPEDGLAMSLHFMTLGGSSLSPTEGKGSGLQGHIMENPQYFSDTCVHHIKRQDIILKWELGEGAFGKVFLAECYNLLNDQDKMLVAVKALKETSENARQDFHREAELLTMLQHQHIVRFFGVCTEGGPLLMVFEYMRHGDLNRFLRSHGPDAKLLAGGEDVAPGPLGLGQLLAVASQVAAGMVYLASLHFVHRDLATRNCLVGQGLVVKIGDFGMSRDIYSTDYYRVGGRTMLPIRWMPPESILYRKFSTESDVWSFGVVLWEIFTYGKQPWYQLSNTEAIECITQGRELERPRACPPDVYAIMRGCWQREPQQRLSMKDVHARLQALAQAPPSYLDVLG

Compound: nerve growth factor [NGF]
- endocytic vesicles (FM spots) [1]: substantial increase

Compound: Nc1ncnc2c1ncn2[C@@H]1O[C@H](COP(=O)(O)OP(=O)(O)O)[C@@H](O)[C@H]1O [ADP]
- endocytosis (FM spots/cell) (DRG cells; 0.1 mM ADP and FM): induced significant endocytosis
- distribution of endocytic vesicles, medulla compared with periphery (P2Y; ADP-induced vesicles in DRG neuron, histogram FIG. 3C): Almost twice as many
- number of FM spots relative to those induced by AR, GABAB, and mAChR (P2Y; DRG neuron, ligands separately introduced, FIG. 6B): 2-3 times
- number of FM spots (endocytic vesicles) (P2Y; FM+ADP 3 min vs FM+ES control 3 min, single DRG neuron, FIG. 3A/3B): increased dramatically; also recorded: dramatic increase
- number of fluorescent spots (endocytic vesicles) in the cell (DRG neuron; image at t=tm (ADP) vs t=tk (control), DRG neuron): substantial increase
- fluorescence intensity (number of endocytic vesicles) inside the cell (DRG neuron; time course, average of 21 experiments, extracellular FM dye present): significantly increases
- numbers of endocytic vesicles induced by the two ligands (DRG): similar

Compound: CC(C)[C@H](NC(=O)[C@H](CCC(=O)O)NC(=O)[C@H](Cc1ccccc1)NC(=O)[C@@H](C)NC(=O)[C@@H](N)Cc1ccc(O)cc1)C(=O)N[C@H](C(=O)NCC(=O)O)C(C)C [deltorphin]
- number of FM spots relative to those induced by AR, GABAB, and mAChR (δ-opioid-DOR): 2-3 times

Compound: Cc1ccc(C(=O)Nc2ccc(S(=O)(=O)O)c3cc(S(=O)(=O)O)cc(S(=O)(=O)O)c23)cc1NC(=O)c1cccc(NC(=O)Nc2cccc(C(=O)Nc3cc(C(=O)Nc4ccc(S(=O)(=O)O)c5cc(S(=O)(=O)O)cc(S(=O)(=O)O)c45)ccc3C)c2)c1 [suramin]
- inhibition of ADP-induced endocytosis (FM spots/cell) (DRG cells; ADP, Suramin, and FM): inhibited

Compound: [Cl-].[K+] [KCl]
- green/5HT-R vesicles discharged (DRG; 80 mM KCL for three minutes, 5-HT-induced vesicles, FIG. 8E): about 37%
- red/P2Y vesicles discharged (DRG; 80 mM KCL for three minutes, ADP-induced vesicles, FIG. 8E): about 43%
- vesicles lost after the KCl treatment (DRG; 80 mM KCL for three minutes, FIG. 8C): significant amount of vesicles were lost

Compound: NCCc1c[nH]c2ccc(O)cc12 [5-HT, 5-hydroxytryptamine]
- endocytic vesicles (FM spots) (5HT-R; 5-HT 0.1 mM vs control incubated with ES 3 minutes): substantial increases
- number of FM spots relative to those induced by AR, GABAB, and mAChR (5HT-R; ligands separately introduced, FIG. 6B): 2-3 times
- numbers of endocytic vesicles induced by the two ligands (DRG): similar

From patent US7803563B2, “Method for screening the receptor-ligand binding in live cell” (Shanghai Institutes for Biological Sciences, CAS, priority 2006, dated 2010)
